# Data from ChEMBL document CHEMBL6153041, “Discovery of High-Affinity SMARCA2/4 Bromodomain Ligands and Development of Potent and Exceptionally Selective SMARCA2 PROTAC Degraders” (J Med Chem, 2025).
# Legend:
# [1] = biological target: T1, von Hippel-Lindau disease tumor suppressor/SWI/SNF-related matrix-associated actin-dependent regulator of chromatin subfamily A member 4 (Homo sapiens, UniProt P51532+P40337); experiment: PROTAC activity at VHL1/SMARCA4 in human genetically modified Hela cells assessed as degradation measured after 48 hrs incubation by Nano-Glo HiBiT Lytic Detection Assay; assay type: cell-based
# Target sequence in this assay (P51532 whole entry): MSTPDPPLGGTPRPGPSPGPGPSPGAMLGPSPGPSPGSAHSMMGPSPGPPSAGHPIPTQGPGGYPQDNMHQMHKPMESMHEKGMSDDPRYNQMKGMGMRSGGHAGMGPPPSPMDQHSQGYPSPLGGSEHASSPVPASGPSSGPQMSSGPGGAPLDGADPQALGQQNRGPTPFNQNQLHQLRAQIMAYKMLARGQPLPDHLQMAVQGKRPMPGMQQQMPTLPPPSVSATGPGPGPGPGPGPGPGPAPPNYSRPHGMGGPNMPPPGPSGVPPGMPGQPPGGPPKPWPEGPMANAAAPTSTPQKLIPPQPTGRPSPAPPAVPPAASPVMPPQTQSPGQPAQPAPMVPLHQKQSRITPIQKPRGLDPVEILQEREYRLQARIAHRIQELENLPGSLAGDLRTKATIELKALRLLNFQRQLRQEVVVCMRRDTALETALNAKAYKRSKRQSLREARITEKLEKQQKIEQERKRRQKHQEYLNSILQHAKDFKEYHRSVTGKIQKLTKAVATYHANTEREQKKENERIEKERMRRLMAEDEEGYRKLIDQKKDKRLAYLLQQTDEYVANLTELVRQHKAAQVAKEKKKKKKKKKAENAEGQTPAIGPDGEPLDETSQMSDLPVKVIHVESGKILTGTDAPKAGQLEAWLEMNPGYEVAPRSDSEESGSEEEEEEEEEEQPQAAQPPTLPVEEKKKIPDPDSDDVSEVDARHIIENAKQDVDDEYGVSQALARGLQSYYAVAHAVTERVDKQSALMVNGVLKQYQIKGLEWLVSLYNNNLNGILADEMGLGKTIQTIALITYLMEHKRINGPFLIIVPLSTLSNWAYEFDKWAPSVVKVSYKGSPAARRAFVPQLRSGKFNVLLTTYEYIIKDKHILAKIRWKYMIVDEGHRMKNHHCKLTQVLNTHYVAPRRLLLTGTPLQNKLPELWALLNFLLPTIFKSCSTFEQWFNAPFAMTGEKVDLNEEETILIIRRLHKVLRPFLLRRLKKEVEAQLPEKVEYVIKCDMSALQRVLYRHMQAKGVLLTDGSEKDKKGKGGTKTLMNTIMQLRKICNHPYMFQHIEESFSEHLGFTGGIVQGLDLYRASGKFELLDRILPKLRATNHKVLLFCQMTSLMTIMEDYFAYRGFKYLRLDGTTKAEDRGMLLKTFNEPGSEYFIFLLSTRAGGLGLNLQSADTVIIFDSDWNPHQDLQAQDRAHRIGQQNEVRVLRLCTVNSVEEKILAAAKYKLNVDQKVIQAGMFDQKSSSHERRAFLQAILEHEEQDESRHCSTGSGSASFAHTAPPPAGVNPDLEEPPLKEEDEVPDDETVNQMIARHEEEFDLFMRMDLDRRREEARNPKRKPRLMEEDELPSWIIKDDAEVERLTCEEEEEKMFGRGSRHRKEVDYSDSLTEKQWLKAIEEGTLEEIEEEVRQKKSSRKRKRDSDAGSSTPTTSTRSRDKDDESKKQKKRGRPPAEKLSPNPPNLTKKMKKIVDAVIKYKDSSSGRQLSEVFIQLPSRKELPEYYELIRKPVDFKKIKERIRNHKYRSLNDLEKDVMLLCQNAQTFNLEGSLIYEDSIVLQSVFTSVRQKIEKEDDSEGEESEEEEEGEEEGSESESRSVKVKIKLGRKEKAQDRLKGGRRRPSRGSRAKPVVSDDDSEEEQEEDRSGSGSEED
# Target sequence in this assay (P40337 whole entry): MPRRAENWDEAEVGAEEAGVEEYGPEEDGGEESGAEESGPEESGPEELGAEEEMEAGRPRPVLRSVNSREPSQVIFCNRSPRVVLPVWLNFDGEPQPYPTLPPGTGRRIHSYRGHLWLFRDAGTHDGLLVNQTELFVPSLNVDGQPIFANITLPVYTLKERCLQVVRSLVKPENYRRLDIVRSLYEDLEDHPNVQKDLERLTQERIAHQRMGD
# [2] = biological target: T2, von Hippel-Lindau disease tumor suppressor/SWI/SNF-related matrix-associated actin-dependent regulator of chromatin subfamily A member 2 (Homo sapiens, UniProt P51531+P40337); experiment: PROTAC activity at VHL1/SMARCA2 in human genetically modified Hela cells assessed as degradation measured after 48 hrs incubation by Nano-Glo HiBiT Lytic Detection Assay; assay type: cell-based
# Target sequence in this assay (P51531 whole entry): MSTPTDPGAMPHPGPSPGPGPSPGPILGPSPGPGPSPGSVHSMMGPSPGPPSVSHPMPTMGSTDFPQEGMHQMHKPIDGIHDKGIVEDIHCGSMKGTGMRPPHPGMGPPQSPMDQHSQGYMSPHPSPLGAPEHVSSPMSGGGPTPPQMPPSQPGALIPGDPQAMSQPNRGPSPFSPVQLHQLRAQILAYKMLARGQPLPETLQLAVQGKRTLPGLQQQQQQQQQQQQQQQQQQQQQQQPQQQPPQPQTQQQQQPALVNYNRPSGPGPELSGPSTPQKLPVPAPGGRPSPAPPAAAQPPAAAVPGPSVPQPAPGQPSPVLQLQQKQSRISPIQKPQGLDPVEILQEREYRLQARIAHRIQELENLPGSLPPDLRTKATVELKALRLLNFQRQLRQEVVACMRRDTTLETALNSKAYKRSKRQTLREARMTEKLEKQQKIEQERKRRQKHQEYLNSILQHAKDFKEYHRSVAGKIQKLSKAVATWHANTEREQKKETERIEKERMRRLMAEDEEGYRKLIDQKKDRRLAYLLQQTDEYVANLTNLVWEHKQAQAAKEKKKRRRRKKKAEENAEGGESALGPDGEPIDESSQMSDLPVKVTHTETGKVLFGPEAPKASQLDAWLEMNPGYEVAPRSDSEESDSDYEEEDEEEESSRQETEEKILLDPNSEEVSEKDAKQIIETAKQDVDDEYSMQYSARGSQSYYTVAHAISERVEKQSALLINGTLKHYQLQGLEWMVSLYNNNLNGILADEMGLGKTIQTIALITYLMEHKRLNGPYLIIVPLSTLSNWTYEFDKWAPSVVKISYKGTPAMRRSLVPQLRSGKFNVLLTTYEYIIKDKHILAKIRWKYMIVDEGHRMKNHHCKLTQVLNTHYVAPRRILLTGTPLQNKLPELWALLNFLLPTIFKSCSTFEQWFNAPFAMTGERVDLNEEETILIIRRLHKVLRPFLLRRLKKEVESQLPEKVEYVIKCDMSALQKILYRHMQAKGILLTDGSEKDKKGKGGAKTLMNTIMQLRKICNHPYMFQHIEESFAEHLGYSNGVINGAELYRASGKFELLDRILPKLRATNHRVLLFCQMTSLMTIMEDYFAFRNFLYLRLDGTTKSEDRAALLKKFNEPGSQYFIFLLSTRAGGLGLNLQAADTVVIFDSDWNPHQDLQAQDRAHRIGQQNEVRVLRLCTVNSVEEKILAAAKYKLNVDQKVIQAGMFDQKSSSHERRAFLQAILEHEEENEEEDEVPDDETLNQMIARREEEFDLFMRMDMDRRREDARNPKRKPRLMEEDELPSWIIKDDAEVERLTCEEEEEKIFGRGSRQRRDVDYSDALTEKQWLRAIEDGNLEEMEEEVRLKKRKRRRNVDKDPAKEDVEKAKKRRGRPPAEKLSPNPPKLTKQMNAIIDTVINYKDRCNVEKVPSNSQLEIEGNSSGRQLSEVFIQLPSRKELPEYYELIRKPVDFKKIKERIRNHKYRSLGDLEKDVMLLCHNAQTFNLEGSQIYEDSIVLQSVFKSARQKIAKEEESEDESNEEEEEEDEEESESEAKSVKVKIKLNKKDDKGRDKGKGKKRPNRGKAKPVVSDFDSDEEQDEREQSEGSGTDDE
# Target sequence in this assay (P40337 whole entry): as the sequence (P40337 whole entry) above
# [3] = biological target: T2, von Hippel-Lindau disease tumor suppressor/SWI/SNF-related matrix-associated actin-dependent regulator of chromatin subfamily A member 2; experiment: PROTAC activity at VHL1/SMARCA2 in human genetically modified Hela cells assessed as maximal degradation measured after 24 hrs incubation by Nano-Glo HiBiT Lytic Detection Assay relative to control; assay type: cell-based
# [4] = biological target: T1, von Hippel-Lindau disease tumor suppressor/SWI/SNF-related matrix-associated actin-dependent regulator of chromatin subfamily A member 4; experiment: PROTAC activity at VHL1/SMARCA4 in human genetically modified Hela cells assessed as degradation measured after 24 hrs incubation by Nano-Glo HiBiT Lytic Detection Assay; assay type: cell-based
# Target sequence in this assay (P51532 whole entry): as the sequence (P51532 whole entry) above
# Target sequence in this assay (P40337 whole entry): as the sequence (P40337 whole entry) above
# [5] = biological target: T1, von Hippel-Lindau disease tumor suppressor/SWI/SNF-related matrix-associated actin-dependent regulator of chromatin subfamily A member 4; experiment: PROTAC activity at VHL1/SMARCA4 in human genetically modified Hela cells assessed as degradation measured after 8 hrs incubation by Nano-Glo HiBiT Lytic Detection Assay; assay type: cell-based
# Target sequence in this assay (P51532 whole entry): as the sequence (P51532 whole entry) above
# Target sequence in this assay (P40337 whole entry): as the sequence (P40337 whole entry) above
# [6] = biological target: T1, von Hippel-Lindau disease tumor suppressor/SWI/SNF-related matrix-associated actin-dependent regulator of chromatin subfamily A member 4; experiment: PROTAC activity at VHL1/SMARCA4 in human genetically modified Hela cells assessed as maximal degradation measured after 24 hrs incubation by Nano-Glo HiBiT Lytic Detection Assay relative to control; assay type: cell-based
# [7] = tested on: HeLa; experiment: Selectivity ratio, ratio of DC50 for VHL1/SMARCA4 in human genetically modified Hela cells to VHL1/SMARCA2 in human genetically modified Hela cells; assay type: cell-based
# [8] = tested on: SK-MEL-28; experiment: Anticancer activity against human SK-MEL-28 cells harbouring wild type SMARCA4 assessed as maximal inhibition of cell growth measured after 7 days incubation by WST-8 assay relative to control; assay type: functional; conditions: time 7 day
# [9] = biological target: T2, von Hippel-Lindau disease tumor suppressor/SWI/SNF-related matrix-associated actin-dependent regulator of chromatin subfamily A member 2; experiment: PROTAC activity at VHL1/SMARCA2 in human NCI-H1792 cells assessed as degradation measured after 24 hrs incubation by Western blot analysis; assay type: cell-based
# Target sequence in this assay (P51531 whole entry): as the sequence (P51531 whole entry) above
# Target sequence in this assay (P40337 whole entry): as the sequence (P40337 whole entry) above
# [10] = biological target: T1, von Hippel-Lindau disease tumor suppressor/SWI/SNF-related matrix-associated actin-dependent regulator of chromatin subfamily A member 4; experiment: PROTAC activity at VHL1/SMARCA4 in human NCI-H1792 cells assessed as degradation measured after 24 hrs incubation by Western blot analysis; assay type: cell-based
# Target sequence in this assay (P51532 whole entry): as the sequence (P51532 whole entry) above
# Target sequence in this assay (P40337 whole entry): as the sequence (P40337 whole entry) above
# [11] = biological target: T1, von Hippel-Lindau disease tumor suppressor/SWI/SNF-related matrix-associated actin-dependent regulator of chromatin subfamily A member 4; experiment: PROTAC activity at VHL1/SMARCA4 in human NCI-H1792 cells assessed as maximal degradation measured after 24 hrs incubation by Western blot analysis relative to control; assay type: cell-based
# [12] = tested on: SK-MEL-5; experiment: Anticancer activity against SMARCA4 deficient human SK-MEL-5 cells assessed as maximal inhibition of cell growth measured after 7 days incubation by WST-8 assay relative to control; assay type: functional; conditions: time 7 day
# [13] = Anticancer activity against SMARCA4 deficient human NCI-H838 cells assessed as maximal inhibition of cell growth measured after 7 days incubation by WST-8 assay relative to control; assay type: functional; conditions: time 7 day
# [14] = biological target: T1, von Hippel-Lindau disease tumor suppressor/SWI/SNF-related matrix-associated actin-dependent regulator of chromatin subfamily A member 4; experiment: PROTAC activity at VHL1/SMARCA4 mutant in human SK-MEL-5 cells assessed as degradation measured after 24 hrs incubation by Western blot analysis; assay type: cell-based
# [15] = biological target: T1, von Hippel-Lindau disease tumor suppressor/SWI/SNF-related matrix-associated actin-dependent regulator of chromatin subfamily A member 4; experiment: PROTAC activity at VHL1/SMARCA4 in human genetically modified Hela cells assessed as maximal degradation measured after 4 hrs incubation by Nano-Glo HiBiT Lytic Detection Assay relative to control; assay type: cell-based
# [16] = tested on: SK-MEL-28; experiment: Anticancer activity against human SK-MEL-28 cells harbouring wild type SMARCA4 assessed as inhibition of cell growth measured after 7 days incubation by WST-8 assay; assay type: functional; conditions: SK-MEL-28, 168 h, time 7 day
# [17] = biological target: T2, von Hippel-Lindau disease tumor suppressor/SWI/SNF-related matrix-associated actin-dependent regulator of chromatin subfamily A member 2; experiment: PROTAC activity at VHL1/SMARCA2 in human genetically modified Hela cells assessed as maximal degradation measured after 8 hrs incubation by Nano-Glo HiBiT Lytic Detection Assay relative to control; assay type: cell-based
# [18] = biological target: T1, von Hippel-Lindau disease tumor suppressor/SWI/SNF-related matrix-associated actin-dependent regulator of chromatin subfamily A member 4; experiment: PROTAC activity at VHL1/SMARCA4 in human genetically modified Hela cells assessed as maximal degradation measured after 8 hrs incubation by Nano-Glo HiBiT Lytic Detection Assay relative to control; assay type: cell-based
# [19] = biological target: T1, von Hippel-Lindau disease tumor suppressor/SWI/SNF-related matrix-associated actin-dependent regulator of chromatin subfamily A member 4; experiment: PROTAC activity at VHL1/SMARCA4 in human genetically modified Hela cells assessed as maximal degradation measured after 48 hrs incubation by Nano-Glo HiBiT Lytic Detection Assay relative to control; assay type: cell-based
# [20] = tested on: NCI-H1792; experiment: Anticancer activity against human NCI-H1792 cells harbouring wild type SMARCA4 assessed as maximal inhibition of cell growth measured after 7 days incubation by WST-8 assay relative to control; assay type: functional; conditions: time 7 day
# [21] = tested on: NCI-H1792; experiment: Anticancer activity against human NCI-H1792 cells harbouring wild type SMARCA4 assessed as inhibition of cell growth measured after 7 days incubation by WST-8 assay; assay type: functional; conditions: NCI-H1792, 168 h, time 7 day
# [22] = biological target: T2, von Hippel-Lindau disease tumor suppressor/SWI/SNF-related matrix-associated actin-dependent regulator of chromatin subfamily A member 2; experiment: PROTAC activity at VHL1/SMARCA2 in human genetically modified Hela cells assessed as maximal degradation measured after 4 hrs incubation by Nano-Glo HiBiT Lytic Detection Assay relative to control; assay type: cell-based
# [23] = tested on: von Hippel-Lindau disease tumor suppressor/SWI/SNF-related matrix-associated actin-dependent regulator of chromatin subfamily A member 4 (Homo sapiens), P51532+P40337 [UNDEFINED MUTATION]; experiment: PROTAC activity at VHL1/SMARCA4 mutant in human SK-MEL-5 cells assessed as maximal degradation measured after 24 hrs incubation by Western blot analysis relative to control; assay type: cell-based
# [24] = tested on: SK-MEL-5; experiment: Anticancer activity against SMARCA4 deficient human SK-MEL-5 cells assessed as inhibition of cell growth measured after 7 days incubation by WST-8 assay; assay type: functional; conditions: SK-MEL-5, 168 h, time 7 day
# [25] = biological target: T2, von Hippel-Lindau disease tumor suppressor/SWI/SNF-related matrix-associated actin-dependent regulator of chromatin subfamily A member 2; experiment: PROTAC activity at VHL1/SMARCA2 in human genetically modified Hela cells assessed as degradation measured after 24 hrs incubation by Nano-Glo HiBiT Lytic Detection Assay; assay type: cell-based
# Target sequence in this assay (P51531 whole entry): as the sequence (P51531 whole entry) above
# Target sequence in this assay (P40337 whole entry): as the sequence (P40337 whole entry) above
# [26] = biological target: T2, von Hippel-Lindau disease tumor suppressor/SWI/SNF-related matrix-associated actin-dependent regulator of chromatin subfamily A member 2; experiment: PROTAC activity at VHL1/SMARCA2 in human NCI-H1792 cells assessed as maximal degradation measured after 24 hrs incubation by Western blot analysis relative to control; assay type: cell-based
# [27] = biological target: T1, von Hippel-Lindau disease tumor suppressor/SWI/SNF-related matrix-associated actin-dependent regulator of chromatin subfamily A member 4; experiment: PROTAC activity at VHL1/SMARCA4 mutant in human NCI-H838 cells assessed as degradation measured after 24 hrs incubation by Western blot analysis; assay type: cell-based
# [28] = Anticancer activity against SMARCA4 deficient human NCI-H838 cells assessed as inhibition of cell growth measured after 7 days incubation by WST-8 assay; assay type: functional; conditions: NCI-H838, 168 h, time 7 day
# [29] = tested on: von Hippel-Lindau disease tumor suppressor/SWI/SNF-related matrix-associated actin-dependent regulator of chromatin subfamily A member 4 (Homo sapiens), P51532+P40337 [UNDEFINED MUTATION]; experiment: PROTAC activity at VHL1/SMARCA4 mutant in human NCI-H838 cells assessed as maximal degradation measured after 24 hrs incubation by Western blot analysis relative to control; assay type: cell-based
# [30] = biological target: T2, von Hippel-Lindau disease tumor suppressor/SWI/SNF-related matrix-associated actin-dependent regulator of chromatin subfamily A member 2; experiment: PROTAC activity at VHL1/SMARCA2 in human genetically modified Hela cells assessed as maximal degradation measured after 48 hrs incubation by Nano-Glo HiBiT Lytic Detection Assay relative to control; assay type: cell-based
# [31] = biological target: T2, von Hippel-Lindau disease tumor suppressor/SWI/SNF-related matrix-associated actin-dependent regulator of chromatin subfamily A member 2; experiment: PROTAC activity at VHL1/SMARCA2 in human genetically modified Hela cells assessed as degradation measured after 4 hrs incubation by Nano-Glo HiBiT Lytic Detection Assay; assay type: cell-based
# Target sequence in this assay (P51531 whole entry): as the sequence (P51531 whole entry) above
# Target sequence in this assay (P40337 whole entry): as the sequence (P40337 whole entry) above
# [32] = biological target: T2, von Hippel-Lindau disease tumor suppressor/SWI/SNF-related matrix-associated actin-dependent regulator of chromatin subfamily A member 2; experiment: PROTAC activity at VHL1/SMARCA2 in human genetically modified Hela cells assessed as degradation measured after 8 hrs incubation by Nano-Glo HiBiT Lytic Detection Assay; assay type: cell-based
# Target sequence in this assay (P51531 whole entry): as the sequence (P51531 whole entry) above
# Target sequence in this assay (P40337 whole entry): as the sequence (P40337 whole entry) above
# [33] = biological target: T1, von Hippel-Lindau disease tumor suppressor/SWI/SNF-related matrix-associated actin-dependent regulator of chromatin subfamily A member 4; experiment: PROTAC activity at VHL1/SMARCA4 in human genetically modified Hela cells assessed as degradation measured after 4 hrs incubation by Nano-Glo HiBiT Lytic Detection Assay; assay type: cell-based
# Target sequence in this assay (P51532 whole entry): as the sequence (P51532 whole entry) above
# Target sequence in this assay (P40337 whole entry): as the sequence (P40337 whole entry) above
# [34] = biological target: T3, Protein cereblon/SWI/SNF-related matrix-associated actin-dependent regulator of chromatin subfamily A member 4 (Homo sapiens) (UniProt P51532+Q96SW2); experiment: PROTAC activity at CRBN/SMARCA4 in human RKO cells assessed as maximal degradation measured after 24 hrs by Western blot analysis relative to control; assay type: cell-based
# [35] = biological target: T4, Protein cereblon/SWI/SNF-related matrix-associated actin-dependent regulator of chromatin subfamily A member 2 (Homo sapiens, UniProt P51531+Q96SW2); experiment: PROTAC activity at CRBN/SMARCA2 in human RKO cells assessed as maximal degradation measured after 24 hrs by Western blot analysis relative to control; assay type: cell-based
# [36] = biological target: T3, Protein cereblon/SWI/SNF-related matrix-associated actin-dependent regulator of chromatin subfamily A member 4 (Homo sapiens); experiment: PROTAC activity at CRBN/SMARCA4 in human RKO cells assessed as degradation measured after 24 hrs by Western blot analysis; assay type: cell-based
# [37] = biological target: T4, Protein cereblon/SWI/SNF-related matrix-associated actin-dependent regulator of chromatin subfamily A member 2; experiment: PROTAC activity at CRBN/SMARCA2 in human RKO cells assessed as degradation measured after 24 hrs by Western blot analysis; assay type: cell-based
SMILES,DC50 [1] [nM],DC50 [2] [nM],Emax [3] [%],DC50 [4] [nM],DC50 [5] [nM],Emax [6] [%],Ratio [7],Imax [8] [%],DC50 [9] [nM],DC50 [10] [nM],Emax [11] [%],Imax [12] [%],Imax [13] [%],DC50 [14] [nM],Emax [15] [%],GI50 [16] [nM],Emax [17] [%],Emax [18] [%],Emax [19] [%],Imax [20] [%],other results
Cc1ncsc1-c1ccc([C@H](CCCCCN2CCC(c3ccc4c(c3)C3(CCCCC3)c3nc(=O)c5c(Cl)cccc5n3-4)CC2)NC(=O)[C@@H]2C[C@@H](O)CN2C(=O)[C@@H](NC(=O)C2(F)CC2)C(C)(C)C)cc1,27,4,97,3.3,27,96,8,91,1.7,26,99,96,92,81.1,96,24.8,97,96,98,52,GI50 [21]: 10.5 nM; Emax [22]: 97%; Emax [23]: 87%; GI50 [24]: 1.1 nM; DC50 [25]: 0.4 nM; Emax [26]: 99%; DC50 [27]: 76.2 nM; GI50 [28]: 10.5 nM; Emax [29]: 89%; Emax [30]: 99%; DC50 [31]: 10 nM; DC50 [32]: 6 nM; DC50 [33]: 38 nM
Cc1ncsc1-c1ccc([C@H](CC[C@H](C)CCN2CCC(c3ccc4c(c3)n(C3CCCC3)c3nc(=O)c5c(Br)cccc5n43)CC2)NC(=O)[C@@H]2C[C@@H](O)CN2C(=O)[C@@H](NC(=O)C2(F)CC2)C(C)(C)C)cc1,–,–,93,33,–,86,12,–,–,–,–,–,–,–,–,–,–,–,–,–,Emax [34]: 67%; DC50 [35]: 32 nM; Emax [36]: 81%; DC50 [25]: 2.3 nM; DC50 [37]: 1 nM
Cc1ncsc1-c1ccc([C@H](C)NC(=O)[C@@H]2C[C@@H](O)CN2C(=O)[C@@H](NC(=O)[C@H]2CC[C@H](CN3CCC(c4ccc5c(c4)-n4c(nc(=O)c6c(Cl)cccc64)C54CCCCC4)CC3)CC2)C(C)(C)C)cc1,> 1000,44,89,> 10000,> 1000,20,> 1250,0,54.2,> 1000,< 30,93,79,81.1,< 10,> 1000,85,< 10,< 10,0,GI50 [21]: > 1000 nM; Emax [22]: 76%; Emax [23]: 87%; GI50 [24]: > 22.3 nM; Emax [26]: 87%; DC50 [27]: 76.2 nM; GI50 [28]: 142 nM; Emax [29]: < 89%; Emax [30]: 91%; DC50 [31]: 142 nM; DC50 [32]: 89 nM; DC50 [33]: > 1000 nM
